Assay results: patent US6855348B2, “Insecticidal composition derived from plants” (priority 2000, dated 2005)
Read-outs that look alike come from different tables or passages of the source.

Columns and labels:
[1] = tested on: mites inhabiting carpets and chairs; conditions: homes, cited from earlier work
Dermatophagoides farinae = tested on: Dermatophagoides farinae
Description: (§1) American house dust mite (Dermatophagoides farinae) and European house dust mite (Dermatophagoide pteronyssinus) were maintained at 75±5% RH (relative humidity) at 25±1° C., and were provided a feed mixture of fish meal and multi-vitamins in a ratio of 1 to 1 on a 12.5×10.5×5 cm container.
(§2) The starting concentration is important for the primary screening of bioactive compounds from plant extracts and oils. […] 1 mg of the methanol extracts or oils were suspended with 40 μl of methanol and were transferred to a colorless microtube (2 ml). The microtube was vertically shaken several times to disperse the contents to the wall and cap of the microtube and it was placed in a freeze dryer for 1 hour in order to volatilize the solvent. Twenty-five mites were placed on the prepared microtube, and all treatment groups were transferred to an incubator kept at […]. Active mites only were selected with a fine brush under a microscope. Mortalities were determined with a microscope at 24 hours and 48 hours after treatment. […] All tests were replicated four or more times. The percentage mortality was determined and transformed to arcsine square-root values for analysis of variance (ANOVA). Treatment means were compared and separated by Scheffe's test at the P=0.05 (SAS Institute, 1996). Means (±standard error) of untransformed data are reported. Controls received 40 μl of methanol.

[2] = tested on: Dermatophagoides pteronyssinus
Description: as §1, §2

house dust mites = assay type: in vivo; conditions: for acaricidal activity / mortality against two species of house dust mites: 1 mg/tube, 48 hours after treatment; for acaricidal activity: at 0.4 mg and less
Description: All tests were replicated four or more times. […] Means (±standard error) of untransformed data are reported. Controls received 40 μl of methanol.

[3] = 0.5 mg/tube, 48 hr, listed as Butyl isothiocyanate
[4] = synergic effect test, 0.25 mg/tube of each compound, 24 hr
[5] = 0.5 mg/tube, 48 hr, listed as Allyl isothiocyanate

| SMILES | Mortality (Means ± standard error, %) (Dermatophagoides farinae; 0.125 mg/tube, 24 hr) | Mortality (Means ± standard error, %) (Dermatophagoides farinae; 0.125 mg/tube, 48 hr) | Mortality (Means ± standard error, %) (Dermatophagoides farinae; 0.2 mg/tube, 24 hr) | Mortality (Means ± standard error, %) (Dermatophagoides farinae; 0.2 mg/tube, 48 hr) | Mortality (Means ± standard error, %) (Dermatophagoides farinae; 0.25 mg/tube, 24 hr) | Mortality (Means ± standard error, %) (Dermatophagoides farinae; 0.25 mg/tube, 48 hr) | Mortality (Means ± standard error, %) (Dermatophagoides farinae; 0.3 mg/tube, 24 hr) | Mortality (Means ± standard error, %) (Dermatophagoides farinae; 0.3 mg/tube, 48 hr) | Mortality (Means ± standard error, %) (Dermatophagoides farinae; 0.4 mg/tube, 24 hr) [b %] | Mortality (Means ± standard error, %) (Dermatophagoides farinae; 0.4 mg/tube, 48 hr) | Mortality (Means ± standard error, %) (Dermatophagoides farinae; 0.5 mg/tube, 24 hr) | Mortality (Means ± standard error, %) (Dermatophagoides farinae; 0.5 mg/tube, 48 hr) | Mortality (Means ± standard error, %) (Dermatophagoides farinae; 1 mg/tube, 24 hr) | Mortality (Means ± standard error, %) (Dermatophagoides farinae; 1 mg/tube, 48 hr) [a %] | Mortality (Means ± standard error, %) ([2]; 0.125 mg/tube, 24 hr) | Mortality (Means ± standard error, %) ([2]; 0.125 mg/tube, 48 hr) | Mortality (Means ± standard error, %) ([2]; 0.2 mg/tube, 24 hr) | Mortality (Means ± standard error, %) ([2]; 0.2 mg/tube, 48 hr) | Mortality (Means ± standard error, %) ([2]; 0.25 mg/tube, 24 hr) | Mortality (Means ± standard error, %) ([2]; 0.25 mg/tube, 48 hr) | further results |
| --- | --- | --- | --- | --- | --- | --- | --- | --- | --- | --- | --- | --- | --- | --- | --- | --- | --- | --- | --- | --- | --- |
| CCN(CC)c1nc(C)cc(OP(=S)(OC)OC)n1 [pirimiphos-methyl] | – | – | – | – | – | – | – | – | – | – | – | – | – | – | – | – | – | – | – | – | control of mites inhabiting carpets ([1]; carpets): 60%; control of mites inhabiting chairs ([1]; chairs): 50% |
| O=C/C=C/c1ccccc1 [trans-cinnamaldehyde] | 18.0 ± 2.6d % | 23.0 ± 3.4c % | 19.0 ± 2.5cd % | 29.0 ± 1.9bc % | 21.0 ± 2.5cd % | 30.0 ± 8.7bc % | 32.0 ± 1.6bc % | 39.0 ± 2.5bc % | 41.0 ± 2.5 | 45.0 ± 2.5b % | 94.0% | 96.0 ± 2.3a % | 99.0 a^c % | 100 | 6.0 ± 3.5d % | 9.0 ± 2.5c % | 7.0 ± 1.0cd % | 9.0 ± 1.0c % | 9.0 ± 1.9cd % | 10.0 ± 2.6bc % | Mortality (Means ± standard error, %) ([2]; 0.3 mg/tube, 24 hr): 25.0 ± 2.5bc %; Mortality (Means ± standard error, %) ([2]; 0.3 mg/tube, 48 hr): 32.0 ± 2.8b %; Mortality (Means ± standard error, %) ([2]; 0.4 mg/tube, 24 hr): 33.0 ± 2.5b %; Mortality (Means ± standard error, %) ([2]; 0.4 mg/tube, 48 hr): 42.0 ± 4.2b %; Mortality (Means ± standard error, %) ([2]; 0.5 mg/tube, 24 hr): 84.0%; Mortality (Means ± standard error, %) ([2]; 0.5 mg/tube, 48 hr): 94.0 ± 2.6a %; Mortality (Means ± standard error, %) ([2]; 1 mg/tube, 24 hr): 100a %; Mortality (Means ± standard error, %) ([2]; 1 mg/tube, 48 hr): 100a % |
| CCCCN=C=S [butyl isothiocyanate] | 1.0 ± 1.0 d % | 2.0% | 1.0 ± 1.0 e % | 3.0% | 20.0 ± 1.6 c % | 27.0% | 26.0 ± 2.0 c % | 34.0% | 44.0 ± 2.8 | 48.0% | 84.0 ± 5.2 a % | 94.0% | 99.0 ± 1.0 a % | 100 | 1.0 ± 1.0 d % | 2.0 ± 1.2 d % | 7.0 ± 1.0 cd % | 7.0 ± 1.0 cd % | 21.0 ± 2.5 cd % | 30.0 ± 8.7 bc % | acaricidal activity / mortality against two species of house dust mites (house dust mites): 100%; acaricidal activity (house dust mites): no significant acaricidal activity; Mortality (Means ± standard error, %) (Dermatophagoides farinae; [3]): 97%; Mortality (Means ± standard error, %) ([2]; 0.3 mg/tube, 24 hr): 32.0 ± 1.6 bc %; Mortality (Means ± standard error, %) ([2]; 0.3 mg/tube, 48 hr): 39.0 ± 2.5 bc %; Mortality (Means ± standard error, %) ([2]; 0.4 mg/tube, 24 hr): 39.0 ± 2.5 b %; Mortality (Means ± standard error, %) ([2]; 0.4 mg/tube, 48 hr): 45.0 ± 2.5 b %; Mortality (Means ± standard error, %) ([2]; 0.5 mg/tube, 24 hr): 92.0 ± 2.6 a %; Mortality (Means ± standard error, %) ([2]; 0.5 mg/tube, 48 hr): 96.0 ± 2.3 a %; Mortality (Means ± standard error, %) [2, 3]: 94%; Mortality (Means ± standard error, %) ([2]; 1 mg/tube, 24 hr): 99.0 a^c %; Mortality (Means ± standard error, %) ([2]; 1 mg/tube, 48 hr): 100 a % |
| CCN(CC)C(=O)c1cccc(C)c1 [DEET, reference compound] | – | – | – | – | – | – | – | – | – | – | – | – | – | – | – | – | – | – | – | – | Mortality (Means ± standard error, %) (Dermatophagoides farinae; [4]): 96.8%; Mortality (Means ± standard error, %) [2, 4]: 16.8% |
| C=CCN=C=S [allyl isothiocyanate] | 1.0 ± 1.0 e % | 0 e % | 6.0 ± 1.2 d % | 9.0% | 7.0 ± 3.0 d % | 8.0% | 22.0 ± 2.6 c % | 27.0% | 44.0 ± 2.8 | 46.0% | 90.0 ± 2.6 a % | 97.0% | 100 a % | 100 | 6.0 ± 3.5 d % | 9.0 ± 2.5 c % | 7.0 ± 1.0 cd % | 9.0 ± 1.0 c % | 9.0 ± 1.9 cd % | 10.0 ± 2.6 bc % | acaricidal activity / mortality against two species of house dust mites (house dust mites): 100%; acaricidal activity (house dust mites): no significant acaricidal activity; Mortality (Means ± standard error, %) (Dermatophagoides farinae; [5]): 94%; Mortality (Means ± standard error, %) ([2]; 0.3 mg/tube, 24 hr): 25.0 ± 2.5 bc %; Mortality (Means ± standard error, %) ([2]; 0.3 mg/tube, 48 hr): 32.0 ± 2.8 b %; Mortality (Means ± standard error, %) ([2]; 0.4 mg/tube, 24 hr): 33.0 ± 2.5 b %; Mortality (Means ± standard error, %) ([2]; 0.4 mg/tube, 48 hr): 42.0 ± 4.2 b %; Mortality (Means ± standard error, %) ([2]; 0.5 mg/tube, 24 hr): 92.0 ± 2.6 a %; Mortality (Means ± standard error, %) ([2]; 0.5 mg/tube, 48 hr): 94.0 ± 2.6 a %; Mortality (Means ± standard error, %) [2, 5]: 96%; Mortality (Means ± standard error, %) ([2]; 1 mg/tube, 24 hr): 100 a %; Mortality (Means ± standard error, %) ([2]; 1 mg/tube, 48 hr): 100 a % |
| CCCCOC(=O)c1ccccc1C(=O)OCCCC [dibutyl phtalate, reference compound] | – | – | – | – | – | – | – | – | – | – | – | – | – | – | – | – | – | – | – | – | Mortality (Means ± standard error, %) (Dermatophagoides farinae; [4]): 92.0%; Mortality (Means ± standard error, %) [2, 4]: 95.2% |
| OC/C=C/c1ccccc1 [cinnamyl alcohol] | 1.0 ± 1.0d % | 2.0 ± 1.2c % | 7.0 ± 1.0c % | 7.0 ± 1.0c % | 10.0 ± 3.8c % | 10.0 ± 4.1c % | 39.0 ± 2.6b % | 45.0 ± 1.9b % | 58.0 ± 2.6 | 65.0 ± 1.9ab % | 90.0% | 97.0 ± 1.9a % | 99.0 ± 1.0a % | 100 | 1.0 ± 1.0e % | 3.0 ± 1.9d % | 6.0 ± 1.2d % | 10.0 ± 1.2c % | 15.0 ± 1.9d % | 14.0 ± 2.6c % | Mortality (Means ± standard error, %) ([2]; 0.3 mg/tube, 24 hr): 35.0 ± 2.5c %; Mortality (Means ± standard error, %) ([2]; 0.3 mg/tube, 48 hr): 40.0 ± 3.7b %; Mortality (Means ± standard error, %) ([2]; 0.4 mg/tube, 24 hr): 56.0 ± 2.8b %; Mortality (Means ± standard error, %) ([2]; 0.4 mg/tube, 48 hr): 62.0 ± 2.6b %; Mortality (Means ± standard error, %) ([2]; 0.5 mg/tube, 24 hr): 90.0%; Mortality (Means ± standard error, %) ([2]; 0.5 mg/tube, 48 hr): 97.0 ± 1.9a %; Mortality (Means ± standard error, %) ([2]; 1 mg/tube, 24 hr): 99.0 ± 1.0a %; Mortality (Means ± standard error, %) ([2]; 1 mg/tube, 48 hr): 100a % |
